In patent US20060217370A1, “Compounds useful for the treatment and prevention of pain and screening methods therefor” (priority 2005, published 2006):

Tests used:
Assay in all cases: Receptor Selection and Amplification Technology (R-SAT) functional receptor assay
human MrgX1 = molecular target: T1, human MrgX1 (Homo sapiens, UniProt Q96LB2); type: cell-based; conditions: for Human-X1 Eff(%): efficacy relative to Bam22, nr = no response up to 10 micromolar
T1 construct: expressed in transfected cells; host or cells: NIH3T3
T1 sequence (Q96LB2 whole entry): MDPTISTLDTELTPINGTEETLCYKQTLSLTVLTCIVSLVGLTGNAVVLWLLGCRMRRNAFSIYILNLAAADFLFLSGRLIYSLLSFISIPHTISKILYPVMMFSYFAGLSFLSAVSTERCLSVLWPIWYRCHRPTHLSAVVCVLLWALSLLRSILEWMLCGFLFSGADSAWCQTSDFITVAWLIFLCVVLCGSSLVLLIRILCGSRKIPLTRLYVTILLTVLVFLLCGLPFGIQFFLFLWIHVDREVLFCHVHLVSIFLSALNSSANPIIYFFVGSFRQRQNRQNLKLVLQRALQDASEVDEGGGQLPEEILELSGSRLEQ
Experimental: (§1) The functional receptor assay, Receptor Selection and Amplification Technology (R-SAT), was used to investigate the pharmacological properties of test compounds on MRGX1 or MRGX2 receptors. R-SAT is disclosed in U.S. Pat. Nos. 5,707,798, 5,912,132, and 5,955,281, each of which is incorporated by reference herein in its entirety, including any drawings.
(§2) Briefly, NIH3T3 cells were grown in 96-well tissue culture plates to 70-80% confluence. Cells were transfected for 16-20 h with plasmid DNAs using Polyfect (Qiagen Inc.) and the manufacturer's protocols. R-SATs were generally performed with 4 ng/well of receptor and 20 ng/well of β-galactosidase plasmid DNA. The human MrgX1, simian MrgX1, human MrgX2 and simian MrgX2 receptor genes were amplified by PCR from genomic DNA using oligodeoxynucleotide primers based on SEQ ID NO:1, SEQ ID NO:3, SEQ ID NO:5, SEQ ID NO:7, or SEQ ID NO:9. For large-scale transfections, cells were transfected for 16-20 h, then trypsinized and frozen in DMSO. Frozen cells were later thawed, plated at ˜10,000 cells per well of a 96 half-area well plate that contained test compound. With both methods, cells were then grown in a humidified atmosphere with 5% ambient CO2 for five days. The medium was then removed from the plates and marker gene activity was measured by the addition of the β-galactosidase substrate o-nitrophenyl β-galactopyranoside (ONPG, in PBS with 0.5% NP-40). The resulting colorimetric reaction was measured in a spectrophotometric plate reader (Titertek Inc.) at 420 nm. All data were analyzed using the computer program XLFit (IDBSm). Efficacy is defined as the percent maximal activation compared to activation by a control compound (BAM22 in the case of human or simian MRGX1, STIA or Cortistatin-14 in the case of human or simian MRGX2). pEC50 is the negative of log(EC50), where EC50 is the calculated molar concentration of test compound that produces 50% of maximum activation.
(§3) Efficacy is reported relative to the ligands Bam22 for MrgX1 and STIA for MrgX2.

human MrgX2 = molecular target: T2, human MrgX2 (Homo sapiens, UniProt Q96LB1); type: cell-based; conditions: for Human-X2 Eff(%): efficacy relative to STIA, nr = no response up to 10 micromolar; for EC50: transfected NIH3T3 cells, read-out: Human-X2 pEC50 (converted)
T2 construct: expressed in transfected cells; host or cells: NIH3T3
T2 sequence (Q96LB1 1-330): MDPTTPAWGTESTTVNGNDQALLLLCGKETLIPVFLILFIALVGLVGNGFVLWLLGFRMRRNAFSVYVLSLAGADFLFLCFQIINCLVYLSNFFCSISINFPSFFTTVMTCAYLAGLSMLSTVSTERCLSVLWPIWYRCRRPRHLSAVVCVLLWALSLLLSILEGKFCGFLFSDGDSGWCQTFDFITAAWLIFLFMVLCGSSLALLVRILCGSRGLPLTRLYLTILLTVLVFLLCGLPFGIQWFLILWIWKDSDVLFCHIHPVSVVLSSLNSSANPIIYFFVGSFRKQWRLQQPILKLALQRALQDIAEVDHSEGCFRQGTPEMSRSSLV
Experimental: as §1, §2, §3

simian MrgX1 = simian MrgX1 (Macaca mulatta, UniProt Q1L4E8, cells depend on it, form not given, species not given); type: cell-based, monkey; conditions: efficacy relative to Bam22, nr = no response up to 10 micromolar
Chain of simian MrgX1 (Q1L4E8 1-322, change not shown): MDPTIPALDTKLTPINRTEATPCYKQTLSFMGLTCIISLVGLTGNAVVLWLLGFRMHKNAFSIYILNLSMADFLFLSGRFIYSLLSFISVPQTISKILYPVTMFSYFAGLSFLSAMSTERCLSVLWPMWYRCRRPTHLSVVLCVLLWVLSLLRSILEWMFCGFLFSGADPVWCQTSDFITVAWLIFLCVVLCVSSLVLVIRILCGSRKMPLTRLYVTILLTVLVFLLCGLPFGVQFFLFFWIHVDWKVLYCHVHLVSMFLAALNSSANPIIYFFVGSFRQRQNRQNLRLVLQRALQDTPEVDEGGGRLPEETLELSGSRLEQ
Experimental: as §1
Briefly, NIH3T3 cells were grown in 96-well tissue culture plates to 70-80% confluence. Cells were transfected for 16-20 h with plasmid DNAs using Polyfect (Qiagen Inc.) and the manufacturer's protocols. R-SATs were generally performed with 4 ng/well of receptor and 20 ng/well of β-galactosidase plasmid DNA. The human MrgX1, simian MrgX1, human MrgX2 and simian MrgX2 receptor genes were amplified by PCR from genomic DNA using oligodeoxynucleotide primers based on SEQ ID NO:1, SEQ ID NO:3, SEQ ID NO:5, SEQ ID NO:7, or SEQ ID NO:9. For large-scale transfections, cells were transfected for 16-20 h, then trypsinized and frozen in DMSO. […] The medium was then removed from the plates and marker gene activity was measured by the addition of the β-galactosidase substrate o-nitrophenyl β-galactopyranoside (ONPG, in PBS with 0.5% NP-40). The resulting colorimetric reaction was measured in a spectrophotometric plate reader (Titertek Inc.) at 420 nm. All data were analyzed using the computer program XLFit (IDBSm). […]

Human-X1 Eff(%) (human MrgX1)	Human-X2 Eff(%) (human MrgX2)	EC50 (human MrgX2) [nM]	Monkey-X1 Eff(%) (simian MrgX1)	EC50 (human MrgX1; transfected NIH3T3 cells, read-out: Human-X1 pEC50 (converted)) [nM]	Compound
nr	174	100	nr	–	CC(C)C1C(=O)Nc2ccc(N3CCN(Cc4ccccc4)CC3)cc2-c2nc3cc(C(=O)N(C)C4CCN(C)CC4)ccc3n21 (centres unmarked) [Mrg-606]
124%	98	316	–	39.8	CC[C@H](C)C1C(=O)Nc2ccc(NCCCN(C)C)cc2-c2nc3cc(C(=O)NCc4cccc(C(F)(F)F)c4)ccc3n21 (some centres unmarked) [Mrg-173]
